In US20230108906A1, “SUBSTITUTED BICYCLIC AND TRICYCLIC UREAS AND AMIDES, ANALOGUES THEREOF, AND METHODS USING SAME” (Arbutus Biopharma Corporation, priority 2019, published 2023):

Test system: HBV rcDNA in HepDE19 cells
Assay: HepDE19 assay with bDNA quantitation of HBV rcDNA
Format: cell-based, hepatitis B virus (HBV)
Settings: Hepatitis B virus, HepDE19, 168 h, inhibition of rcDNA formation in HepDE19 cells (HepG2 derived), Tet-free medium, 7 day incubation, Quantigene 2.0 bDNA readout, top concentration 25 μM; read-out: DE-19bDNA EC50
Protocol: HepDE19 Assay with bDNA Quantitation of HBV rcDNA:
HepDE19 cell culture system is a HepG2 (human hepatocarcinoma) derived cell line that supports HBV DNA replication and cccDNA formation in a tetracycline (Tet)-regulated manner and produces HBV rcDNA and a detectable reporter molecule dependent on the production and maintenance of cccDNA (Guo, et al., 2007, J. Virol. 81:12472-12484).
HepDE19 (50,000 cells/well) were plated in 96-well collagen-coated tissue-culture treated microtiter plates in DMEM/F12 medium supplemented with 10% fetal bovine serum, 1% penicillin-streptomycin and 1 μg/mL tetracycline and incubated in a humidified incubator at 37° C. and 5% CO2 overnight. Next day, the cells were switched to fresh medium without tetracycline and incubated for 4 hours at 37° C. and 5% CO2. The cells were treated with fresh Tet-free medium with compounds at concentrations starting at 25 μM and a serial, […], 8-point, titration series in duplicate. The final DMSO concentration in the assay was 0.5%. The plates were incubated for 7 days in a humidified incubator at 37° C. and 5% CO2. Following a 7 day-incubation, the level of rcDNA present in the inhibitor-treated wells was measured using a Quantigene 2.0 bDNA assay kit (Affymetrix, Santa Clara, Calif.) with HBV specific custom probe set and manufacturers instructions. Concurrently, the effect of compounds on cell viability was assessed using replicate plates, plated at a density of 5,000 cells/well and incubated for 4 days, to determine the ATP content as a measure of cell viability using the cell-titer glo reagent (CTG; Promega Corporation, Madison, Wis.) as per manufacturer's instructions. The plates were read using a Victor luminescence plate reader (PerkinElmer Model 1420 Multilabel counter) and the relative luminescence units (RLU) data generated from each well was calculated as % inhibition of the untreated control wells and analyzed using XL-Fit module in Microsoft Excel to determine EC50 and EC90 (bDNA) and CC50 (CTG) values using a 4-parameter curve fitting algorithm.
Representative compounds of the disclosure were tested for their abilities to inhibit formation of relaxed circular DNA (rcDNA) in a HepDE19 assay, as described elsewhere herein.

| Compound | EC50 |
| --- | --- |
| CN(C(=O)Nc1ccc(F)c(C#N)c1)[C@@H]1COCc2[nH]c(=O)c3cc(F)ccc3c21 (single isomer, unassigned) [Compound 64] | 20 nM |
| O=C(Nc1ccc(F)c(Cl)c1)N[C@@H]1COCc2[nH]c(=O)c3cc(F)ccc3c21 (single isomer, unassigned) [Compound 67] | 90 nM |
| O=C(Nc1ccc(F)c(Cl)c1)N[C@@H]1COCc2[nH]c(=O)c3cc(F)c(F)cc3c21 (single isomer, unassigned) [Compound 68] | 30 nM |
| Cc1cc(NC(=O)N(C)[C@@H]2COCc3[nH]c(=O)c4cc(F)c(F)cc4c32)ccc1F (single isomer, unassigned) [Compound 69] | 10 nM |
| CN(C(=O)Nc1ccc(F)c(C#N)c1)[C@@H]1COCc2[nH]c(=O)c3cc(F)c(F)cc3c21 (single isomer, unassigned) [Compound 70] | 10 nM |
| CN(C(=O)Nc1ccc(F)c(Cl)c1)[C@H]1COCc2[nH]c(=O)c3cc(F)c(F)cc3c21 (single isomer, unassigned) [Compound 71] | 210 nM |
| CN(C(=O)Nc1ccc(F)c(Cl)c1)[C@@H]1COCc2[nH]c(=O)c3cc(F)c(F)cc3c21 (single isomer, unassigned) [Compound 72] | 10 nM |
| CN(C(=O)Nc1ccc(F)c(Cl)c1)C1CCCc2[nH]c(=O)c3c(c21)COCC3 (single isomer, unassigned) [Compound 79, 3-(3-Chloro-4-fluorophenyl)-1-methyl-1-(5-oxo-3,4,5,6,7,8,9,10-octahydro-1H-pyrano[4,3-c]quinolin-10-yl)urea] | ≥ 25000 nM |
| CCN(C(=O)Nc1ccc(F)c(Cl)c1)[C@@H]1COCc2[nH]c(=O)c3cc(F)ccc3c21 (single isomer, unassigned) [Compound 87] | 10 nM |
| CCN(C(=O)Nc1ccc(F)c(Cl)c1)[C@@H]1COCc2[nH]c(=O)c3cc(F)c(F)cc3c21 (single isomer, unassigned) [Compound 88] | 10 nM |

Same assay, conditions: inhibition of rcDNA formation in HepDE19 cells (HepG2 derived), Tet-free medium, 7 day incubation, Quantigene 2.0 bDNA readout, top concentration 25 μM; read-out: DE-19bDNA EC50

| Compound | EC50 |
| --- | --- |
| CN(C(=O)Nc1ccc(F)c(F)c1)C1CCCc2[nH]c(=O)c3c(c21)CCOC3 (single isomer, unassigned) [Compound 62, 3-(3,4-Difluorophenyl)-1-methyl-1-(5-oxo-1,4,5,6,7,8,9,10-octahydro-2H-pyrano[3,4-c]quinolin-10-yl)urea] | 1300 nM |
| CN(C(=O)Nc1ccc(F)c(F)c1)C1CCCc2[nH]c(=O)c3c(c21)CCOC3 (single isomer, unassigned) [Compound 63, 3-(3,4-Difluorophenyl)-1-methyl-1-(5-oxo-1,4,5,6,7,8,9,10-octahydro-2H-pyrano[3,4-c]quinolin-10-yl)urea] | 3100 nM |
| CN(C(=O)Nc1ccc(F)c(F)c1)C1CCCc2[nH]c(=O)c3c(c21)COCC3 (single isomer, unassigned) [Compound 81, 3-(3,4-Difluorophenyl)-1-methyl-1-(5-oxo-3,4,5,6,7,8,9,10-octahydro-1H-pyrano[4,3-c]quinolin-10-yl)urea] | ≥ 25000 nM |
| CN(C(=O)Nc1ccc(F)c(F)c1)C1CCCc2[nH]c(=O)c3c(c21)COCC3 (single isomer, unassigned) [Compound 82, 3-(3,4-Difluorophenyl)-1-methyl-1-(5-oxo-3,4,5,6,7,8,9,10-octahydro-1H-pyrano[4,3-c]quinolin-10-yl)urea] | 7300 nM |
| CN(C(=O)Nc1ccc(F)c(Cl)c1)C1COCc2[nH]c(=O)c3c(c21)COCC3 (single isomer, unassigned) [Compound 83, 3-(3-Chloro-4-fluorophenyl)-1-methyl-1-(5-oxo-4,5,6,7,9,10-hexahydro-1H,3H-dipyrano[3,4-b:3′,4′-d]pyridin-10-yl)urea] | ≥ 25000 nM |
| CN(C(=O)Nc1ccc(F)c(Cl)c1)C1COCc2[nH]c(=O)c3c(c21)COCC3 (single isomer, unassigned) [Compound 84, 3-(3-Chloro-4-fluorophenyl)-1-methyl-1-(5-oxo-4,5,6,7,9,10-hexahydro-1H,3H-dipyrano[3,4-b:3′,4′-d]pyridin-10-yl)urea] | 830 nM |
| CN(C(=O)Nc1ccc(F)c(F)c1)C1COCc2[nH]c(=O)c3c(c21)COCC3 (single isomer, unassigned) [Compound 85, 3-(3,4-Difluorophenyl)-1-methyl-1-(5-oxo-1,3,4,5,6,7,9,10-octahydrodipyrano[3,4-b:3′,4′-d]pyridin-10-yl)urea] | 4500 nM |
| CN(C(=O)Nc1ccc(F)c(F)c1)C1COCc2[nH]c(=O)c3c(c21)COCC3 (single isomer, unassigned) [Compound 86, 3-(3,4-Difluorophenyl)-1-methyl-1-(5-oxo-1,3,4,5,6,7,9,10-octahydrodipyrano[3,4-b:3′,4′-d]pyridin-10-yl)urea] | ≥ 25000 nM |
| CN(C(=O)Nc1ccc(F)c(Cl)c1)C1COCc2[nH]c(=O)c3c(c21)CCOC3 (single isomer, unassigned) [Compound 91, 3-(3-Chloro-4-fluorophenyl)-1-methyl-1-(6-oxo-1,2,4,5,6,7,9,10-octahydrodipyrano[3,4-b:4′,3′-d]pyridin-1-yl)urea] | 11000 nM |
| CN(C(=O)Nc1ccc(F)c(Cl)c1)C1COCc2[nH]c(=O)c3c(c21)CCOC3 (single isomer, unassigned) [Compound 92, 3-(3-Chloro-4-fluorophenyl)-1-methyl-1-(6-oxo-1,2,4,5,6,7,9,10-octahydrodipyrano[3,4-b:4′,3′-d]pyridin-1-yl)urea] | 150 nM |
| CN(C(=O)Nc1ccc(F)c(F)c1)C1COCc2[nH]c(=O)c3c(c21)CCOC3 (single isomer, unassigned) [Compound 93, 3-(3,4-Difluorophenyl)-1-methyl-1-(6-oxo-1,2,4,5,6,7,9,10-octahydrodipyrano[3,4-b:4′,3′-d]pyridin-1-yl)urea] | ≥ 25000 nM |
| CN(C(=O)Nc1ccc(F)c(F)c1)C1COCc2[nH]c(=O)c3c(c21)CCOC3 (single isomer, unassigned) [Compound 94, 3-(3,4-Difluorophenyl)-1-methyl-1-(6-oxo-1,2,4,5,6,7,9,10-octahydrodipyrano[3,4-b:4′,3′-d]pyridin-1-yl)urea] | 740 nM |
| CN(C(=O)Nc1cc(Cl)c(F)c(Cl)c1)C1COCc2[nH]c(=O)c3cc(F)ccc3c21 (single isomer, unassigned) [Compound 97, 3-(3,5-Dichloro-4-fluorophenyl)-1-(8-fluoro-6-oxo-1,4,5,6-tetrahydro-2H-pyrano[3,4-c]isoquinolin-1-yl)-1-methylurea] | 3300 nM |
| CN(C(=O)Nc1cc(Cl)c(F)c(Cl)c1)C1COCc2[nH]c(=O)c3cc(F)ccc3c21 (single isomer, unassigned) [Compound 98, 3-(3,5-Dichloro-4-fluorophenyl)-1-(8-fluoro-6-oxo-1,4,5,6-tetrahydro-2H-pyrano[3,4-c]isoquinolin-1-yl)-1-methylurea] | 30 nM |
| CC(C)CN(C(=O)Nc1ccc(F)c(F)c1)C1COCc2[nH]c(=O)c3cc(F)ccc3c21 (single isomer, unassigned) [Compound 99, 3-(3,4-Difluorophenyl)-1-(8-fluoro-6-oxo-2,4,5,6-tetrahydro-1H-pyrano[3,4-c]isoquinolin-1-yl)-1-isobutylurea] | 10 nM |
| CC(C)CN(C(=O)Nc1ccc(F)c(F)c1)C1COCc2[nH]c(=O)c3cc(F)ccc3c21 (single isomer, unassigned) [Compound 100, 3-(3,4-Difluorophenyl)-1-(8-fluoro-6-oxo-2,4,5,6-tetrahydro-1H-pyrano[3,4-c]isoquinolin-1-yl)-1-isobutylurea] | 430 nM |
| CN(C(=O)Nc1ccc(F)cc1)C1COCc2[nH]c(=O)c3cc(F)c(F)cc3c21 (single isomer, unassigned) [Compound 103, 1-(8,9-Difluoro-6-oxo-1,4,5,6-tetrahydro-2H-pyrano[3,4-c]isoquinolin-1-yl)-3-(4-fluorophenyl)-1-methylurea] | 5300 nM |

Same assay, conditions: read-out: DE-19bDNA EC50; inhibition of rcDNA formation in HepDE19 cells (HepG2 derived), Tet-free medium, 7 day incubation, Quantigene 2.0 bDNA readout, top concentration 25 μM

| Compound | EC50 |
| --- | --- |
| CN(C(=O)Nc1ccccc1)C1COCc2[nH]c(=O)c3cc(F)c(F)cc3c21 (single isomer, unassigned) [Compound 101, 1-(8,9-Difluoro-6-oxo-1,4,5,6-tetrahydro-2H-pyrano[3,4-c]isoquinolin-1-yl)-1-methyl-3-phenylurea] | 4700 nM |
| CN(C(=O)Nc1ccccc1)C1COCc2[nH]c(=O)c3cc(F)c(F)cc3c21 (single isomer, unassigned) [Compound 102, 1-(8,9-Difluoro-6-oxo-1,4,5,6-tetrahydro-2H-pyrano[3,4-c]isoquinolin-1-yl)-1-methyl-3-phenylurea] | 30 nM |
